Reference: patent US20120172228A1, “ALCOHOL ALKOXYLATES AS ADJUVANTS FOR AGROCHEMICAL FORMULATIONS” (SYNGENTA CROP PROTECTION, LLC, priority 2009, published 2012)

Tests used:
Format in all cases: in vivo
[1] = system: lolium perenne (LOLPE), alopecurius myosuirides (ALOMY), setaria viridis (SETVI), avena fatua (AVEFA); test: Adjuvant with herbicide pinoxaden, track sprayer, mean across four weed species; conditions: pinoxaden 7.5 or 15 g/ha, 14 and 21 days
[2] = system: chenopodium album (CHEAL), digitaria sanguinalis (DIGSA), setaria viridis (SETVI), abutilon theophrasti (ABUTH); test: Adjuvant with herbicide nicosulfuron, track sprayer, mean across four weed species
Method: (§1) In this example Sample 13 from Table 1 was compared to the oil adjuvant blend Turbocharge™. The herbicide fomesafen was applied to the weed species xanthium strumarium (XANST), setaria viridis (SETVI), abutilon theophrasti (ABUTH), and chenopodium album (CHEAL) at rates of 60 or 120 grams per hectare, using a laboratory track sprayer. Each experiment was replicated four times and the percentage damage to the weeds was assessed visually at time periods of 7, 14 and 21 days after application. Each adjuvant was applied at a rate of 0.5% of the volume of the spray water. Four effects were evaluated: pesticide rate (2 levels), adjuvant type (two levels), weed species (four levels) and days after application (three levels). A standard simple linear model was constructed to judge the significance of these effects. […] The effect of each adjuvant was pulled out from the model and the least significant differences evaluated using a Student's t method. […]
(§2) In this example the butylene oxide adjuvant Sample 13 of Table 1 was compared to the commercial oil adjuvant blend Atplus™411F. […] Each experiment was replicated four times and the percentage damage to the weeds was assessed visually at time periods of 14 and 21 days after application. […]
In this example the rate response of the butylene oxide adjuvant Sample 13 of Table 1 was measured and compared to the adjuvant TEHP. […]

[3] = system: abutilon theophrasti (ABUTH); test: Adjuvant with herbicide nicosulfuron on ABUTH; conditions: nicosulfuron 30 or 60 g/ha; adjuvants 0.2% of spray water; 14 and 21 days after application
Method: as §1, with “levels).” for “levels). A standard simple linear model was constructed to judge the significance of these effects.”
as §2
In this example the responses of the butylene oxide adjuvants 13, 17, 19, 21, 22 and 23 of Table 1 were measured at an application rate of 0.2% of the volume of the spray solution used. […]

SMILES: CCCCC(CC)COP(=O)(OCC(CC)CCCC)OCC(CC)CCCC (centres unmarked) [TEHP, tris 2-ethylhexyl phosphate]
- Mean kill (%) ([1]; Sample 28 0.2%, TEHP 0.5%): 92.6%
- mean efficacy (percentage damage to the weeds), All weeds ([1]; butylene oxide adjuvants 0.2%, TEHP 0.5% v/v): 75.63; A %
- mean efficacy (percentage damage to the weeds), All weeds ([2]; nicosulfuron 30 or 60 g/ha, adjuvants 0.2% of spray water, 14 and 21 days after application): 58.12; B %
- Mean % kill ([2]; nicosulfuron 30 to 60 g/ha, adjuvant rate 0.2% w/v, across four weed species, 14 and 21 days): 58.12%
- mean efficacy (percentage damage to the weeds), ABUTH [3]: 17.92; B %
